In ChEMBL document CHEMBL5131418, “Streptooctatins A and B, fusicoccane-type diterpenoids with autophagic activity from Streptomyces sp. KCB17JA11” (Bioorg Med Chem Lett, 2022):
Calls of active or inactive are those of the source. No cut-off for these calls is given here.

How the values were obtained:
HeLa [1] = assay: Induction of autophagy in human HeLa cells assessed as increase in LC3-II protein expression level at 10 to 50 uM uM incubated for 24 hrs by western blot analysis; format: functional, cell-based; settings: dose 10-50 µM
HeLa [2] = assay: Cytotoxicity against human HeLa cells assessed as reduction in cell viability up to 100 uM; format: toxicity, cell-based
HeLa [3] = assay: Cytotoxicity against human HeLa cells assessed as reduction in cell number at 100 uM; format: toxicity, cell-based
HeLa [4] = assay: Induction of autophagy in human HeLa cells stably expressing EGFP-LC3 assessed as increase in EGFP-LC3 puncta formation at 25 uM incubated for 24 hrs by fluorescence microscopic analysis; format: functional, cell-based

Structure (SMILES) | Activity (HeLa [1]) | Activity (HeLa [2]) | Activity (HeLa [3]) | Activity (HeLa [4])
CCC(=O)[C@@H](C)[C@H]1O[C@@](O)([C@H](C)C(=O)OC[C@@H](CO)[C@H]2CC[C@]3(C)C[C@@H]4[C@H](CO)C[C@@H](O)[C@H]4[C@@](C)(O)C/C=C/23)[C@H](C)C[C@H]1C | Active | Non-Toxic | Toxic | Active
CCCC(=O)[C@@H](C)[C@H]1O[C@@](O)([C@H](C)C(=O)OC[C@@H](CO)[C@H]2CC[C@]3(C)C[C@@H]4[C@H](CO)C[C@@H](O)[C@H]4[C@@](C)(O)C/C=C/23)[C@H](C)C[C@H]1C | Active | Non-Toxic | Toxic | Active
CC(C)[C@H]1CC[C@]2(C)C[C@@H]3[C@H](CO)C[C@@H](O)[C@H]3[C@@](C)(O)C/C=C/12 | – | Non-Toxic | – | –
